Reference: patent US11369615B2, “Agent for improving mitochondrial dysfunction, preventative or therapeutic agent for diseases or symptoms caused by mitochondrial dysfunction, and applications therefor” (JICHI MEDICAL UNIVERSITY, priority 2017, dated 2022)
Structures can show the parent of a compound that is named as a salt.

Assays:
[1] = tested on: ME54 cells derived from a patient with Leigh syndrome; assay: Tolerance to oxidative stress by BSO, ME54 cells; assay type: cell-based, human
Procedure: (§1) The oxidative stress test is a known pharmaceutical agent screening method, which was carried out under the conditions where cell death was induced by addition of L-buthionine-(S,R)-sulfoximine (BSO) (Arce P M et al., ACS Med Chem Lett., May 31, 2011, Vol. 2 (8), p. 608-13, doi: 10.1021/m1200095w. eCollection, Aug. 11, 2011, PubMed PMID: 24900356; PubMed Central PMCID: PMC4018135). BSO inhibits synthesis of glutathione serving as an antioxidant in the cells to deplete glutathione, raising the level of active oxygen within the cells. The procedure of the test is as follows. The cells to be used in the test were seeded in a 96-well plate for cell culture so as to satisfy a concentration of 5,000 cells/well and 80 μL medium/well and cultured in a CO2 incubator (37° C., 5% CO2) for 24 hours. Twenty four hours after the culture, BSO and each of the pharmaceutical agents (final concentration of 1 μM) of the drug library were together added to the cells within the wells. Forty eight hours after the addition, survival rates were determined. The survival rates were determined by measuring absorbance of formazan generated by use of cell count reagent SF (Nacalai Tesque, Inc.). As a positive control compound, idebenone (Non Patent Literature 1) approved as a therapeutic agent for Leber's hereditary optic neuritis in Europe, was used in the same concentration. […]

[2] = tested on: Promo 1 cells as normal cells; assay: Tolerance to oxidative stress by BSO, Promo1 normal cells; assay type: cell-based, human; conditions: Promo 1 normal cells; concentration range of 1 to 1000 μM
Procedure: as §1

[3] = tested on: KCMC10 cells derived from a patient with Leigh syndrome; assay: Oxidative stress test (BSO-induced cell death), KCMC10 cells; assay type: cell-based, human; conditions: BSO plus agent 1 μM, 48 hours after addition
Text: (§2) In mitochondrial dysfunction, for example, ATP production is damaged and/or oxidative stress increases, with the result that apoptosis of cells is induced. Because of this, individuals having mitochondrial dysfunction are reported to be less tolerant to oxidative stress, compared to normal individuals (Shrader W D et al., Bioorg Med Chem Lett., Jun. 15, 2011, Vol. 21 (12), p. 3693-8, doi: 10.1016/j.bmc1.2011.04.085. electronically published on Apr. 24, 2011, PubMed PMID: 21600768). Then, oxidative stress was given to the skin fibroblasts of individual patients mentioned above to induce apoptosis. Under the conditions, compounds of the drug library were each administered to the cells. In this manner, a primary screening was carried out. Then, candidate pharmaceutical agents selected by the primary screening were subjected to a secondary screening, which is an in-vitro evaluation test such as a mitochondrial function evaluation test and a microarray expression analysis.
(§3) The oxidative stress test is a known pharmaceutical agent screening method, which was carried out under the conditions where cell death was induced by addition of L-buthionine-(S,R)-sulfoximine (BSO) (Arce P M et al., ACS Med Chem Lett., May 31, 2011, Vol. 2 (8), p. 608-13, doi: 10.1021/m1200095w. eCollection, Aug. 11, 2011, PubMed PMID: 24900356; PubMed Central PMCID: PMC4018135). BSO inhibits synthesis of glutathione serving as an antioxidant in the cells to deplete glutathione, raising the level of active oxygen within the cells. The procedure of the test is as follows. The cells to be used in the test were seeded in a 96-well plate for cell culture so as to satisfy a concentration of 5,000 cells/well and 80 μL medium/well and cultured in a CO2 incubator (37° C., 5% CO2) for 24 hours. Twenty four hours after the culture, BSO and each of the pharmaceutical agents (final concentration of 1 μM) of the drug library were together added to the cells within the wells. Forty eight hours after the addition, survival rates were determined. The survival rates were determined by measuring absorbance of formazan generated by use of cell count reagent SF (Nacalai Tesque, Inc.). As a positive control compound, idebenone (Non Patent Literature 1) approved as a therapeutic agent for Leber's hereditary optic neuritis in Europe, was used in the same concentration.
(§4) An oxidative stress test was carried out by using three fibroblast cell lines derived from patients with a mitochondrial disease and provided in 1-2. The pharmaceutical agent showing the survival rate equal to or more than that of idebenone, a positive control compound, was determined to be effective. The results of oxidative stress test of pharmaceutical agents of the drug library to KCMC10 cells are shown in FIG. 2; the results of oxidative stress test of pharmaceutical agents of the drug library to ME54 cells are shown in FIG. 3; and the results of oxidative stress test of pharmaceutical agents of the drug library to ME110 cells are shown in FIG. 4.

[4] = tested on: ME54 cells derived from a patient with Leigh syndrome; assay: Oxidative stress test (BSO-induced cell death), ME54 cells; assay type: cell-based, human; conditions: BSO plus agent 1 μM, 48 hours after addition
Text: as §2, §3, §4

KCMC10 cells = assay: Evaluation test for mitochondrial function (extracellular flux analyzer, OCR), KCMC10 cells; assay type: cell-based, human; conditions: 10 to 100 nM, 24 hours after addition, vs DMSO control
Procedure: (§5) An evaluation test for mitochondrial function including ATP production (capacity) was carried out by using an extracellular flux analyzer (XFe96, Primetech Corporation). Mitochondrial function can be evaluated by continuously measuring the oxygen consumption rate (OCR) of mitochondria during ATP synthesis by use of the extracellular flux analyzer while adding ATP synthase inhibitors (oligomycin, rotenone and antimycin A) and an uncoupler (carbonyl cyanide-p-trifluoromethoxy phenylhydrazone (FCCP)). The evaluation items to be analyzed were basal respiratory volume, ATP production (capacity) and maximum respiratory volume, which are major indexes for evaluating mitochondrial function. The test procedure is as follows. The cells to be used in the test were seeded in a 96-well plate for cell culture so as to satisfy a concentration of 20,000 cells/well and 80 μL medium/well and cultured in a CO2 incubator (37° C., 5% CO2) for 24 hours. Twenty four hours after the culture, each of the pharmaceutical agents (final concentration of 1,000, 100 or 10 nM) of the drug library or the same amount of dimethyl sulfoxide (DMSO) as a control was added to the cells within wells. Twenty minutes after the addition of the pharmaceutical agent, oligomycin (final concentration of 2 μM) was added. Fifty minutes after the addition of the pharmaceutical agent, FCCP (final concentration of 2 μM) was added. Eighty minutes after the addition of the pharmaceutical agent, rotenone and antimycin A (final concentration of 0.5 μM) were sequentially added. The oxygen consumption rate (OCR) was measured with time. Based on the measurement results 24 hours after the addition of the pharmaceutical agents of the drug library, basal respiratory volume, ATP production (capacity) and maximum respiratory volume were evaluated.
(§6) Reference symbols of ** and ***, which represent p values relative to the control (DMSO) calculated by Student's t-test, show […], respectively.

ME110 cells = assay: Evaluation test for mitochondrial function (extracellular flux analyzer, OCR), ME110 cells; assay type: cell-based, human; conditions: 10 nM, 24 hours after addition, vs DMSO control
Procedure: as §5, §6

[5] = stated as known; cited from earlier work
[6] = tested on: KCMC10 cells derived from patients with Leigh syndrome; assay: Microarray expression analysis
Procedure: Expression analysis by a microarray was carried out by use of SurePrint G3 Human Gene Expression 8×60K v3 of Agilent Technologies, Inc. To KCMC10 cells derived from patients with Leigh syndrome, BSO was added, to prepare a group of patients provided with oxidative stress. To the cells, BSO and each of the candidate pharmaceutical agents selected from the drug library were both added to prepare another group. In this manner, two samples per each group were prepared. RNA was extracted from each of the samples and subjected to expression analysis by a microarray.
In the tables, the value of Log 2 ratio between the two groups of 1 means that expression ratios differ twice, the value of Log 2 ratio of 2 means 4 times difference and the value of Log 2 ratio of 3 means 8 times difference.

[7] = tested on: ME110 cells derived from a patient with MELAS; assay: Oxidative stress test (BSO-induced cell death), ME110 cells; assay type: cell-based, human; conditions: BSO plus agent 1 μM, 48 hours after addition
Text: as §2, §3, §4

[8] = KCMC10, BSO/agent vs BSO, Inflammatory cytokine
[9] = KCMC10, BSO/agent vs BSO, JAK-STAT signal pathway
[10] = KCMC10, BSO/agent vs BSO, Lymphocytic tissue homing receptor
[11] = KCMC10, BSO/agent vs BSO, MARK signal pathway
[12] = KCMC10, BSO/agent vs BSO, Proinflammatory effect
[13] = KCMC10, BSO/agent vs BSO, Table 4
[14] = KCMC10, BSO/agent vs BSO, WNT signal pathway
[15] = KCMC10, BSO/agent vs BSO, mTOR signal pathway
[16] = KCMC10 cells, BSO/agent addition group vs BSO addition group

SMILES: CCCCS(=N)(=O)CCC(N)C(=O)O [BSO, L-buthionine-(S,R)-sulfoximine]
- concentration at which the survival rate significantly decreased [1]: ≥ 50 µM
- difference in survival rates [2]: no significant difference

SMILES: CN1CCc2cccc3c2[C@H]1Cc1ccc(O)c(O)c1-3 [Pharmaceutical agent No. 5, R(−)-Apomorphine hydrochloride hemihydrate]
- survival rate equal to or more than that of idebenone (determined to be effective) [3]: effective
- survival rate equal to or more than that of idebenone (determined to be effective) [4]: effective
- ATP production (capacity) (KCMC10 cells): significantly improved
- basal respiratory volume (KCMC10 cells): significantly improved
- maximum respiratory volume (KCMC10 cells): significantly improved
- ATP production (capacity) (ME110 cells): significantly improved
- basal respiratory volume (ME110 cells): significantly improved
- maximum respiratory volume (ME110 cells): significantly improved
- ability to pass through the blood-brain barrier [5]: known to be able to pass through the blood-brain barrier
- Expression change (Increase/Decrease), CCL3 [6, 8]: Decrease
- Expression change (Increase/Decrease), IL24 [6, 8]: Decrease
- Expression change (Increase/Decrease), LIF [6, 8]: Decrease
- Log 2 ratio between two groups, CCL3 [6, 8]: −2.98
- Log 2 ratio between two groups, IL24 [6, 8]: −1.77
- Log 2 ratio between two groups, LIF [6, 8]: −3.32
- Expression change (Increase/Decrease), BCL2A1 [6, 9]: Decrease
- Expression change (Increase/Decrease), FHL1 [6, 9]: Increase
- Expression change (Increase/Decrease), IL13RA2 [6, 9]: Decrease
- Expression change (Increase/Decrease), SOCS2 [6, 9]: Increase
- Expression change (Increase/Decrease), SOSC1 [6, 9]: Decrease
- Log 2 ratio between two groups, BCL2A1 [6, 9]: −3.90
- Log 2 ratio between two groups, FHL1 [6, 9]: 1.01
- Log 2 ratio between two groups, IL13RA2 [6, 9]: −1.63
- Log 2 ratio between two groups, SOCS2 [6, 9]: 1.30
- Log 2 ratio between two groups, SOSC1 [6, 9]: −1.21
- Expression change (Increase/Decrease), CCL19 [6, 10]: Decrease
- Log 2 ratio between two groups, CCL19 [6, 10]: −4.92
- Expression change (Increase/Decrease), DUSP6 [6, 11]: Decrease
- Log 2 ratio between two groups, DUSP6 [6, 11]: −3.25
- Expression change (Increase/Decrease), IL12A [6, 12]: Decrease
- Log 2 ratio between two groups, IL12A [6, 12]: −2.71
- Expression change (Increase/Decrease), CCL7 [6, 13]: Decrease
- Expression change (Increase/Decrease), CSF3 [6, 13]: Decrease
- Expression change (Increase/Decrease), CXCL2 [6, 13]: Decrease
- Expression change (Increase/Decrease), CXCL3 [6, 13]: Decrease
- Expression change (Increase/Decrease), CXCL8 [6, 13]: Decrease
- Expression change (Increase/Decrease), MMP1 [6, 13]: Decrease
- Log 2 ratio between two groups, CCL7 [6, 13]: −2.41
- Log 2 ratio between two groups, CSF3 [6, 13]: −5.58
- Log 2 ratio between two groups, CXCL2 [6, 13]: −2.68
- Log 2 ratio between two groups, CXCL3 [6, 13]: −3.72
- Log 2 ratio between two groups, CXCL8 [6, 13]: −4.34
- Log 2 ratio between two groups, MMP1 [6, 13]: −1.40
- Expression change (Increase/Decrease), DKK4 [6, 14]: Increase
- Expression change (Increase/Decrease), FZD8 [6, 14]: Decrease
- Expression change (Increase/Decrease), GBP [6, 14]: Increase
- Expression change (Increase/Decrease), LEF1 [6, 14]: Decrease
- Expression change (Increase/Decrease), SOST [6, 14]: Increase
- Log 2 ratio between two groups, DKK4 [6, 14]: 1.66
- Log 2 ratio between two groups, FZD8 [6, 14]: −1.51
- Log 2 ratio between two groups, GBP [6, 14]: 2.11
- Log 2 ratio between two groups, LEF1 [6, 14]: −1.23
- Log 2 ratio between two groups, SOST [6, 14]: 1.70
- Expression change (Increase/Decrease), CAB39L [6, 15]: Decrease
- Expression change (Increase/Decrease), DEPTOR [6, 15]: Increase
- Expression change (Increase/Decrease), FECN [6, 15]: Decrease
- Expression change (Increase/Decrease), PRR5 [6, 15]: Increase
- Expression change (Increase/Decrease), RNF152 [6, 15]: Decrease
- Expression change (Increase/Decrease), RPS6KA1 [6, 15]: Decrease
- Expression change (Increase/Decrease), RRAGD [6, 15]: Decrease
- Expression change (Increase/Decrease), SESN2 [6, 15]: Increase
- Log 2 ratio between two groups, CAB39L [6, 15]: −1.37
- Log 2 ratio between two groups, DEPTOR [6, 15]: 2.11
- Log 2 ratio between two groups, FECN [6, 15]: −1.61
- Log 2 ratio between two groups, PRR5 [6, 15]: 4.19
- Log 2 ratio between two groups, RNF152 [6, 15]: −1.61
- Log 2 ratio between two groups, RPS6KA1 [6, 15]: −1.22
- Log 2 ratio between two groups, RRAGD [6, 15]: −2.27
- Log 2 ratio between two groups, SESN2 [6, 15]: 1.41
- number of genes showing a significant change in expression (expression ratio differs twice or more) [6, 16]: 475 types of genes
- overall expression change of genes of the WNT-mTOR signal pathway (Table 3) [6, 16]: changed toward suppressing the WNT-mTOR signal pathway
- overall expression change of genes related to cytokines or chemokines involved in inflammation or natural immunity (Table 4) [6, 16]: changed toward suppressing expression of the cytokines or chemokines
- survival rate equal to or more than that of idebenone (determined to be effective) [7]: effective
